# Source: patent US9895367B2, “Formulation comprising phenylaminopyrimidine derivative as active agent” (NATCO PHARMA LIMITED, priority 2011, dated 2018)
# Legend:
# rats = experiment: Toxicological study, maximum tolerated oral dose in rats; assay type: in vivo
# [1] = Bioavailability study in rats (oral, LCMS of blood); assay type: in vivo; settings: wistar albino male rats, fasted overnight, average
# Description: Four rats (wistar albino, male, weighing 120-180 grams) were divided into two sets of study (two rats in each set) and fasted overnight prior to dosing, but were permitted water ad libitum. The sample preparation and subsequent dilution was made as per protocol with a vehicle, followed by the administration of the sample through oral route. Blood samples were collected by puncturing retero-orbital sinus of the anaesthetized rats (with anesthetic ether) at definite intervals of 15, 30, 60, 120, 240, 360, 480 and 720 minutes post administration. The blood collection was done in prefilled heparin centrifugation tubes.
# The blood samples collected were subjected for the subsequent centrifugation and followed by analytical procedure with the use of LCMS technique. The areas under the blood drug concentration versus time curves are calculated by the trapezoidal rule. The analysis was done with respect to AUC (area under curve), Cmax (maximum concentration) and Tmax (time of maximum concentration).
# [2] = system: CAL-27 (Tongue squamous cell carcinoma) cell line; experiment: MTT assay on CAL-27 cell line; assay type: cell-based; settings: Homo sapiens, CAL-27, 1.75×10^4 cells/mL, 72 hours
# [3] = Solubility of NRC-AN-019 drug substance; assay type: physicochemical
# Description: NRC-AN-019 is a pale yellow to light brown coloured crystalline to amorphous powder. Its molecular formula is C25H17F6N5O and its relative molecular mass is 517.44. […] The drug substance is soluble in dimethyl formamide and dimethyl sulfoxide.
# [4] = system: PC3M (Prostate Cancer) Cell lines; experiment: MTT assay on PC3M cell lines; assay type: cell-based; settings: Homo sapiens, PC-3M, 0.312×10^5 cells/mL, 72 hours
compound,measurement,setting,value
"Cc1ccc(NC(=O)c2cc(C(F)(F)F)cc(C(F)(F)F)c2)cc1Nc1nccc(-c2cccnc2)n1 [NRC-AN-019, (3,5-bis-trifluoromethyl)-N-[4-methyl-3-(4-pyridin-3-yl-pyrimidin-2-ylamino)-pheny-1]-benzamide]",maximum tolerated oral dose,rats,> 5000 mg/kg bodyweight
same,Cmax,[1]; rat,35.2 ng/mL
same,Tmax,[1]; rat,8.7 h
same,AUC,[1]; trapezoidal rule,430.0 ng·h/mL
same,IC50,[2],1.44 µM
same,solubility in aqueous buffer of pH 1.2,[3]; aqueous buffer pH 1.2,very slightly soluble
same,solubility in dimethyl formamide,[3]; dimethyl formamide,soluble
same,solubility in dimethyl sulfoxide,[3]; dimethyl sulfoxide,soluble
same,solubility in neutral/alkaline aqueous buffers,[3]; neutral/alkaline aqueous buffers,insoluble
same,solubility in water,[3]; water,practically insoluble
same,IC50,[4],4.38 µM
